Assay results: patent US10836792B2, “Retro-inverso peptide inhibitors of cell migration, extracellular matrix and endothelial invasion by tumor cells” (ISTITUTO NAZIONALE TUMORI IRCCS “FONDAZIONE G. PASCALE”, priority 2016, dated 2020)
Non-standard residues stand in square brackets, D forms with d. Residues, ends and D or L forms follow the SMILES beside them. Aib = CC(C)(N)C(=O)O

Tests used:
[1] = system: melanoma A375; assay: Trans-endothelial migration through HUVEC monolayer (xCELLigence RTCA), A375; assay type: cell-based, human; settings: 10 nM, 5 hrs
Description: FIG. 9 At the concentration of 10 nM the retro-inverso peptide RI-3 affects trans-endothelial migration of human chondrosarcoma Sarc (A), melanoma A375 (B), ovarian carcinoma SKOV-3 (C) cells, or THP1 monocytes (D), as monitored by the xCELLigence RTCA system (Example 9).
The entry of tumor cells into bloodstream is one of the earliest events of the metastatic process. The ability of RI-3 to affect trans-endothelial migration of human chondrosarcoma Sarc (A) melanoma A375 (B), ovarian carcinoma SKOV-3 (C) cells, or THP1 monocytes (D) was monitored by the xCELLigence RTCA system. Human Umbilical Vein Endothelial Cells (HUVEC) (1×10^4 cells/well) suspended in growth medium, were allowed to grow for 20-25 hrs until they form a confluent monolayer, prior to seeding Sarc, A375, SKOV-3, or THP-1 cells (1×10^4 cells/well) in growth medium in the absence (None) or in the presence of 10 nM RI-3. The experiments were performed twice in quadruplicate. When cells cross the endothelial monolayer, there is a drop in electrical resistance which is monitored in real-time for 5 hrs as the cell index changes due to the rupture of endothelial monolayer. All cell lines were able to reduce endothelial monolayer integrity. The addition of 10 nM RI-3 inhibited the capability of Sarc, A375, SKOV-3, and THP-1 cells to disrupt endothelial monolayers by 17%, 22%, 58%, and 36% respectively.

[2] = system: human osteosarcoma Saos-2; assay: Matrigel invasion (xCELLigence RTCA), Saos-2; assay type: cell-based; settings: 10 nM, 20 hrs
Description: FIG. 8 At the concentration of 10 nM the retro-inverso peptide RI-3 prevents matrigel invasion of tumor cells from human osteosarcoma Saos-2 (A), chondrosarcoma Sarc (B), melanoma A375 (C), metastatic melanoma A375M6 (D), ovarian carcinoma SKOV-3 cells (E), or primary ovarian cancer cells derived from a tumor excision (OV-53) (F), as monitored in real-time for 20 hr as changes in cell index by the xCELLigence RTCA system (Example 8).
To investigate the ability of RI-3 to prevents matrigel invasion of tumor cells form different tissue origins, human osteosarcoma Saos-2 (A), chondrosarcoma Sarc (B) melanoma A375 (C), metastatic melanoma A375M6 (D), ovarian carcinoma SKOV-3 cells (E) or primary ovarian cancer cells derived from a tumor excision (OV-53) (F) were seeded on polymerized matrigel and allowed to invade matrigel in the absence (None) or in the presence of 10 nM RI-3. Cell invasion was monitored in real-time for 20 hrs as changes in cell index by the xCELLigence RTCA system. Data represent mean±SD from quadruplicate experiments. All cell lines were able to cross matrigel, although to a different extent. In all case RI-3 reduced matrigel invasion by about 30%, 31%, 64%, 57%, 53% and 68%, of Saos-2, Sarc, A375, A375M6, SKOV-3 and OV-53 cells, respectively.

[3] = system: human Sarc cells; assay: Human Sarc cell tumors in the flank of CD1 nude mice; assay type: in vivo; settings: 6 mg/Kg i.p. every day for 10 days
Description: FIG. 11 The intraperitoneal (i.p.) administration of 6 mg/Kg of the retro-inverso peptide RI-3 every day for 10 days reduces in vivo tumor growth and vascular infiltration by human chondrosarcoma Sarc cells in nude mice. (A) Time-dependent average of treated and control mice. (B) Tumor volumes measured at different time points. (C) Tumors excised after 10 days. (D) CD31 immuno-staining of formalin fixed paraffin sections of the excised tumors. (E) Counts of vascular channels harboring red blood cells on CD31 immuno-stained sections. (F) Quantification of Circulating Tumor Cells (CTCs). (Example 11)
Ten six-eight week old, CD1 female nude mice received the injection of human Sarc cells as a single-cell suspension (1×10^6 cells in 100 μl PBS, 96% viability) into the right flank. Five animals received i.p-administration of 6 mg/Kg RI-3 every day for 10 days, and five received injections of vehicle only (CTRL). A. Time-dependent average weight was monitored every two days. B. Tumor volumes measured at different time points with a caliper, using the formula: ½×(width)^2×length (mm). After 10 days, blood samples (˜500 μL/mouse) from the retroorbital venous plexus of mice were collected and processed for determination of Circulating Tumor Cells (CTC)s. Then, animals were sacrificed and the excised tumors (C) were fixed in buffered formalin and processed for paraffin sectioning. Tumor vascularization was assessed by counting vascular channels harbouring red blood cells on CD31 immuno-stained sections (D) in 5 randomly chosen fields per section, in at least two sections per tumor at ×200 (E). To quantify CTCs, DNA from nucleated cells of murine blood samples was purified and quantitated by Real-Time PCR using primers targeting human Alu-sequences. Number of CTCs was calculated by comparing the obtained amplification curves with others generated in spiking experiments, which were included in every run (F).
Tumor volumes of vehicle- and RI-3-treated mice were 445+/−285 and 112+/−41 mm^3, respectively, with p<0.05 (B). After 10 days, animals were sacrificed and tumors excised (C). According with the ability of RI-3 to prevent in vitro formation of a capillary network, the intratumoral microvessel density was reduced in tumors from animals treated with RI-3 as compared to those treated with vehicle alone (D-E).

## CC(=O)N[C@H](Cc1ccc(O)cc1)C(=O)N[C@H](CCCNC(=N)N)C(=O)NC(C)(C)C(=O)N[C@H](CCCNC(=N)N)C(N)=O [RI-3, Ac-(D)-Tyr-(D)-Arg-Aib-(D)-Arg-NH2] (Ac-[dY][dR][Aib][dR]-NH2)
[1]
  inhibition of the capability to disrupt endothelial monolayers: 22%
[2]
  reduction of matrigel invasion: about 30%
[3]
  body weight: without clear changes in body weight
  mice with CTCs in blood samples: 3/5
  reduction of the number of circulating sarcoma cells in murine blood samples: 74.5%
  signs of toxicity: no signs of toxicity
  tumor volume: 112+/−41 mm^3
[3]; blood after 10 days
  Circulating Tumor Cells in blood: 2.4+/−2 CTCs/mL
[3]; vs vehicle
  intratumoral microvessel density (CD31): reduced
